Measured values: ChEMBL document CHEMBL1649268, “Comparative in vitro activity profile of oritavancin against recent gram-positive clinical isolates” (2009)
≈ marks a conversion by molar mass, not a printed value.

Experiments:
Streptococcus pneumoniae [1] = test: Antimicrobial activity against Streptococcus pneumoniae clinical isolates by broth microdilution method; type: functional
Streptococcus pneumoniae [2] = test: Antimicrobial activity against penicillin-susceptible Streptococcus pneumoniae clinical isolates by broth microdilution method; type: functional
Streptococcus pneumoniae [3] = test: Antimicrobial activity against penicillin-intermediate Streptococcus pneumoniae clinical isolates by broth microdilution method; type: functional
Streptococcus pneumoniae [4] = test: Antimicrobial activity against penicillin-resistant Streptococcus pneumoniae clinical isolates by broth microdilution method; type: functional
[5] = Antimicrobial activity against erythromycin-susceptible Streptococcus Group G clinical isolates assessed as percent susceptible isolates by broth microdilution method; type: functional, Streptococcus sp. 'group G'
[6] = Antimicrobial activity against Streptococcus Group G clinical isolates assessed as percent susceptible isolates by broth microdilution method; type: functional, Streptococcus sp. 'group G'
[7] = Antimicrobial activity against erythromycin-susceptible Streptococcus Group C clinical isolates assessed as percent susceptible isolates by broth microdilution method; type: functional, Streptococcus sp. 'group C'
Streptococcus pyogenes [8] = test: Antimicrobial activity against erythromycin-nonsusceptible Streptococcus pyogenes clinical isolates assessed as percent susceptible isolates by broth microdilution method; type: functional
Streptococcus pyogenes [9] = test: Antimicrobial activity against erythromycin-susceptible Streptococcus pyogenes clinical isolates assessed as percent susceptible isolates by broth microdilution method; type: functional
Streptococcus pyogenes [10] = test: Antimicrobial activity against Streptococcus pyogenes clinical isolates assessed as percent susceptible isolates by broth microdilution method; type: functional
Streptococcus agalactiae [11] = test: Antimicrobial activity against erythromycin-nonsusceptible Streptococcus agalactiae clinical isolates assessed as percent susceptible isolates by broth microdilution method; type: functional
Streptococcus agalactiae [12] = test: Antimicrobial activity against erythromycin-susceptible Streptococcus agalactiae clinical isolates assessed as percent susceptible isolates by broth microdilution method; type: functional
Streptococcus agalactiae [13] = test: Antimicrobial activity against Streptococcus agalactiae clinical isolates assessed as percent susceptible isolates by broth microdilution method; type: functional
[14] = system: Staphylococcus haemolyticus; test: Antimicrobial activity against oxacillin-susceptible Staphylococcus haemolyticus clinical isolates assessed as percent susceptible isolates by broth microdilution method; type: functional
[15] = system: Staphylococcus haemolyticus; test: Antimicrobial activity against Staphylococcus haemolyticus clinical isolates assessed as percent susceptible isolates by broth microdilution method; type: functional
[16] = system: Staphylococcus epidermidis; test: Antimicrobial activity against oxacillin-susceptible Staphylococcus epidermidis clinical isolates assessed as percent susceptible isolates by broth microdilution method; type: functional
Streptococcus pneumoniae [17] = test: Antimicrobial activity against Streptococcus pneumoniae clinical isolates assessed as percent susceptible isolates by broth microdilution method; type: functional
Streptococcus pneumoniae [18] = test: Antimicrobial activity against penicillin-susceptible Streptococcus pneumoniae clinical isolates assessed as percent susceptible isolates by broth microdilution method; type: functional
Streptococcus pneumoniae [19] = test: Antimicrobial activity against penicillin-intermediate Streptococcus pneumoniae clinical isolates assessed as percent susceptible isolates by broth microdilution method; type: functional
Streptococcus pneumoniae [20] = test: Antimicrobial activity against penicillin-resistant Streptococcus pneumoniae clinical isolates assessed as percent susceptible isolates by broth microdilution method; type: functional
[21] = Antimicrobial activity against Streptococcus Group G clinical isolates assessed as resistant isolates by broth microdilution method; type: functional, Streptococcus sp. 'group G'
[22] = Antimicrobial activity against erythromycin-susceptible Streptococcus Group C clinical isolates assessed as resistant isolates by broth microdilution method; type: functional, Streptococcus sp. 'group C'
Streptococcus pyogenes [23] = test: Antimicrobial activity against erythromycin-nonsusceptible Streptococcus pyogenes clinical isolates assessed as resistant isolates by broth microdilution method; type: functional
Streptococcus pyogenes [24] = test: Antimicrobial activity against erythromycin-susceptible Streptococcus pyogenes clinical isolates assessed as resistant isolates by broth microdilution method; type: functional
Streptococcus agalactiae [25] = test: Antimicrobial activity against erythromycin-nonsusceptible Streptococcus agalactiae clinical isolates assessed as resistant isolates by broth microdilution method; type: functional
Streptococcus agalactiae [26] = test: Antimicrobial activity against erythromycin-susceptible Streptococcus agalactiae clinical isolates assessed as resistant isolates by broth microdilution method; type: functional
Streptococcus agalactiae [27] = test: Antimicrobial activity against Streptococcus agalactiae clinical isolates assessed as resistant isolates by broth microdilution method; type: functional
[28] = system: Staphylococcus haemolyticus; test: Antimicrobial activity against oxacillin-resistant Staphylococcus haemolyticus clinical isolates assessed as resistant isolates by broth microdilution method; type: functional
[29] = system: Staphylococcus epidermidis; test: Antimicrobial activity against oxacillin-resistant Staphylococcus epidermidis clinical isolates assessed as resistant isolates by broth microdilution method; type: functional
[30] = system: Staphylococcus epidermidis; test: Antimicrobial activity against Staphylococcus epidermidis clinical isolates assessed as resistant isolates by broth microdilution method; type: functional
Streptococcus [31] = test: Antimicrobial activity against erythromycin-nonsusceptible Streptococcus Group F clinical isolates by broth microdilution method; type: functional
Streptococcus [32] = test: Antimicrobial activity against erythromycin-susceptible Streptococcus Group F clinical isolates by broth microdilution method; type: functional
Streptococcus [33] = test: Antimicrobial activity against Streptococcus Group F clinical isolates by broth microdilution method; type: functional
[34] = Antimicrobial activity against erythromycin-nonsusceptible Streptococcus Group G clinical isolates by broth microdilution method; type: functional; settings: Streptococcus sp. 'group G'
[35] = Antimicrobial activity against erythromycin-susceptible Streptococcus Group G clinical isolates by broth microdilution method; type: functional; settings: Streptococcus sp. 'group G'
[36] = Antimicrobial activity against Streptococcus Group G clinical isolates by broth microdilution method; type: functional; settings: Streptococcus sp. 'group G'
[37] = Antimicrobial activity against erythromycin-nonsusceptible Streptococcus Group C clinical isolates by broth microdilution method; type: functional; settings: Streptococcus sp. 'group C'
[38] = Antimicrobial activity against erythromycin-susceptible Streptococcus Group C clinical isolates by broth microdilution method; type: functional; settings: Streptococcus sp. 'group C'
[39] = Antimicrobial activity against Streptococcus Group C clinical isolates by broth microdilution method; type: functional; settings: Streptococcus sp. 'group C'
Streptococcus pyogenes [40] = test: Antimicrobial activity against erythromycin-nonsusceptible Streptococcus pyogenes clinical isolates by broth microdilution method; type: functional
Streptococcus pyogenes [41] = test: Antimicrobial activity against erythromycin-susceptible Streptococcus pyogenes clinical isolates by broth microdilution method; type: functional
Streptococcus pyogenes [42] = test: Antimicrobial activity against Streptococcus pyogenes clinical isolates by broth microdilution method; type: functional
Streptococcus agalactiae [43] = test: Antimicrobial activity against erythromycin-nonsusceptible Streptococcus agalactiae clinical isolates by broth microdilution method; type: functional
Streptococcus agalactiae [44] = test: Antimicrobial activity against erythromycin-susceptible Streptococcus agalactiae clinical isolates by broth microdilution method; type: functional
Streptococcus agalactiae [45] = test: Antimicrobial activity against Streptococcus agalactiae clinical isolates by broth microdilution method; type: functional
[46] = system: Staphylococcus haemolyticus; test: Antimicrobial activity against oxacillin-resistant Staphylococcus haemolyticus clinical isolates by broth microdilution method; type: functional
[47] = system: Staphylococcus haemolyticus; test: Antimicrobial activity against oxacillin-susceptible Staphylococcus haemolyticus clinical isolates by broth microdilution method; type: functional
Staphylococcus aureus = test: Antimicrobial activity against oxacillin-susceptible Staphylococcus aureus clinical isolates by broth microdilution method; type: functional

Structure (SMILES): CCC[C@@H]1C[C@@H](C(=O)N[C@@H]([C@H]2O[C@H](SC)[C@H](O)[C@@H](O)[C@H]2O)[C@H](C)Cl)N(C)C1 [CLINDAMYCIN]
- MIC90 (Streptococcus pneumoniae [1]): > 1 µg/mL
- MIC90 (Streptococcus pneumoniae [2]): 0.06 µg/mL (≈ 0.141 µM)
- MIC90 (Streptococcus pneumoniae [3]): > 1 µg/mL
- MIC (Streptococcus pneumoniae [4]): > 0.03 µg/mL
- Activity [5]: 100%
- Activity [6]: 96.4%
- Activity [7]: 100%
- Activity (Streptococcus pyogenes [8]): 71%
- Activity (Streptococcus pyogenes [9]): 100%
- Activity (Streptococcus pyogenes [10]): 96%
- Activity (Streptococcus agalactiae [11]): 41%
- Activity (Streptococcus agalactiae [12]): 99%
- Activity (Streptococcus agalactiae [13]): 81.9%
- Activity [14]: 95.8%
- Activity [15]: 70.3%
- Activity [16]: 88.2%
- Activity (Streptococcus pneumoniae [17]): 86.9%
- Activity (Streptococcus pneumoniae [18]): 97.2%
- Activity (Streptococcus pneumoniae [19]): 84.7%
- Activity (Streptococcus pneumoniae [20]): 45.3%
- Activity [21]: 3.6%
- Activity [22]: 0%
- Activity (Streptococcus pyogenes [23]): 28.2%
- Activity (Streptococcus pyogenes [24]): 0%
- Activity (Streptococcus agalactiae [25]): 57.4%
- Activity (Streptococcus agalactiae [26]): 1%
- Activity (Streptococcus agalactiae [27]): 17.6%
- Activity [28]: 37.1%
- Percent of isolates resistant [29]: 43.3%
- Percent of isolates resistant [30]: 34.5%
- MIC90 (Streptococcus [31]): > 1 µg/mL
- MIC90 (Streptococcus [32]): 0.06 µg/mL (≈ 0.141 µM)
- MIC90 (Streptococcus [33]): 0.06 µg/mL (≈ 0.141 µM)
- MIC90 [34]: > 1 µg/mL
- MIC90 [35]: 0.06 µg/mL (≈ 0.141 µM)
- MIC90 [36]: 0.06 µg/mL (≈ 0.141 µM)
- MIC90 [37]: > 1 µg/mL
- MIC90 [38]: 0.06 µg/mL (≈ 0.141 µM)
- MIC90 [39]: 0.06 µg/mL (≈ 0.141 µM)
- MIC90 (Streptococcus pyogenes [40]): > 1 µg/mL
- MIC90 (Streptococcus pyogenes [41]): 0.06 µg/mL (≈ 0.141 µM)
- MIC90 (Streptococcus pyogenes [42]): 0.06 µg/mL (≈ 0.141 µM)
- MIC90 (Streptococcus agalactiae [43]): > 1 µg/mL
- MIC90 (Streptococcus agalactiae [44]): 0.06 µg/mL (≈ 0.141 µM)
- MIC90 (Streptococcus agalactiae [45]): > 1 µg/mL
- MIC90 [46]: > 4 µg/mL
- MIC90 [47]: 0.12 µg/mL (≈ 0.282 µM)
- MIC90 (Staphylococcus aureus): 0.25 µg/mL (≈ 0.588 µM)
